target: T1, MAPKAPK5 (Homo sapiens, UniProt Q8IW41); assay: MAPKAP-K5 assay (FlashPlate, 33P-ATP); type: biochemical; details: 0.6 μM ATP; 3 μM peptide substrate; room temperature 30 minutes
T1 sequence (Q8IW41 1-471 isoform Q8IW41-2): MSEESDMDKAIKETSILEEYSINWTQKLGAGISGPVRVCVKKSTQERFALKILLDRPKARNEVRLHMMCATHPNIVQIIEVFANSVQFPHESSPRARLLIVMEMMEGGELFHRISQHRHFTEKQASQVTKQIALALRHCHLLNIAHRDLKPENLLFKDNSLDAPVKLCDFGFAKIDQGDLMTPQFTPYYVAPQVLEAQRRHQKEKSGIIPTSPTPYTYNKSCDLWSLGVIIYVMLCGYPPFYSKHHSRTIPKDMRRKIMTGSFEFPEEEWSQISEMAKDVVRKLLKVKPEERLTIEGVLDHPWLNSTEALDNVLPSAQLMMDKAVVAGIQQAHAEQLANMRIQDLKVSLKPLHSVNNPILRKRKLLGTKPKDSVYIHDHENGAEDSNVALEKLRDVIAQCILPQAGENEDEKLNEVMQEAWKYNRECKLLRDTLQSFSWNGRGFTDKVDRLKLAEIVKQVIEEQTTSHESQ
Experimental: 3 μM MAPKAP-K5 peptide substrate

Structure (SMILES)	IC50
O=C1NCc2cc(-c3cnc(Nc4nc(CN5CCOCC5)cs4)c4nccn34)ccc21 [Example 1, 5-(8-(4-(morpholinomethyl)thiazol-2-ylamino)imidazo[1,2-a]pyrazin-5-yl)isoindolin-1-one]	0.101 to 0.5 µM
NC(=O)c1cc(-c2cnc(Nc3nc(CN4CCCCC4)cs3)c3ncnn23)co1 [Example 4, 4-(8-(4-(piperidin-1-ylmethyl)thiazol-2-ylamino)-[1,2,4]triazolo[1,5-a]pyrazin-5-yl)furan-2-carboxamide]	0.001 to 0.1 µM
O=C1NCc2cc(-c3cnc(Nc4nc(CN5CCCCC5)cs4)c4nccn34)ccc21 [Example 9, 5-(8-(4-(piperidin-1-ylmethyl)thiazol-2-ylamino)imidazo[1,2-a]pyrazin-5-yl)isoindolin-1-one]	0.001 to 0.1 µM
O=C1NCc2cc(-c3cnc(Nc4nc5c(s4)CCC5)c4nccn34)ccc21 [Example 12, 5-(8-(5,6-dihydro-4H-cyclopenta[d]thiazol-2-ylamino)imidazo[1,2-a]pyrazin-5-yl)isoindolin-1-one]	> 1 µM
O=C1NCc2cc(-c3cnc(Nc4ncc(C(=O)N5CCOCC5)s4)c4nccn34)ccc21 [Example 13, 5-(8-(5-(morpholine-4-carbonyl)thiazol-2-ylamino)imidazol[1,2-a]pyrazin-5-yl)isoindolin-1-one]	0.501 to 1 µM
O=C1NCc2cc(-c3cnc(Nc4nnc(CCN5CCCCC5)s4)c4nccn34)ccc21 [Example 14, 5-(8-(5-(2-(piperidin-1-yl)ethyl)-1,3,4-thiadiazol-2-ylamino)imidazo[1,2-a]pyrazin-5-yl)isoindolin-1-one]	0.501 to 1 µM
O=C1NCc2cc(-c3cnc(Nc4ncc(CN5CCOCC5)s4)c4nccn34)ccc21 [Example 16, 5-(8-(5-(morpholinomethyl)thiazol-2-ylamino)imidazo[1,2-a]pyrazin-5-yl)isoindolin-1-one]	0.101 to 0.5 µM
CN(C)Cc1cnc(Nc2ncc(-c3cn[nH]c3)n3ccnc23)s1 [Example 17, N-(5-(1H-pyrazol-4-yl)imidazo[1,2-a]pyrazin-8-yl)-5-((dimethylamino)methyl)thiazol-2-amine]	> 1 µM
CC(C)N1CCN(Cc2cnc(Nc3ncc(-c4ccc5c(c4)CNC5=O)n4ccnc34)s2)CC1 [Example 18, 5-(8-(5-((4-isopropylpiperazin-1-yl)methyl)thiazol-2-ylamino)imidazo[1,2-a]pyrazin-5-yl)isoindolin-1-one]	0.101 to 0.5 µM
O=C1NCc2cc(-c3cnc(Nc4nncs4)c4nccn34)ccc21 [Example 19, 5-(8-(1,3,4-thiadiazol-2-ylamino)imidazo[1,2-a]pyrazin-5-yl)isoindolin-1-one]	> 1 µM
O=C1NCc2cc(-c3cnc(Nc4ncc(CN5CCCCC5)s4)c4nccn34)ccc21 [Example 24, 5-(8-(5-(piperidin-1-ylmethyl)thiazol-2-ylamino)imidazo[1,2-a]pyrazin-5-yl)isoindolin-1-one]	> 1 µM
c1nc2c(Nc3nc(CN4CCCCC4)cs3)ncc(-c3cn[nH]c3)n2n1 [Example 25, N-(5-(1H-pyrazol-4-yl)-[1,2,4]triazolo[1,5-a]pyrazin-8-yl)-4-(piperidin-1-ylmethyl)thiazol-2-amine]	> 1 µM

Now from value to compound:

IC50	Structure (SMILES)
> 1 µM	c1nc2c(Nc3nc(CN4CCOCC4)cs3)ncc(-c3cn[nH]c3)n2n1 [Example 3, N-(5-(1H-pyrazol-4-yl)-[1,2,4]triazolo[1,5-a]pyrazin-8-yl)-4-(morpholinomethyl)thiazol-2-amine]
0.101 to 0.5 µM	O=C1NCc2cc(-c3cnc(Nc4nccs4)c4nccn34)ccc21 [Example 6, 5-(8-(thiazol-2-ylamino)imidazo[1,2-a]pyrazin-5-yl)isoindolin-1-one]
> 1 µM	c1csc(Nc2ncc(-c3cn[nH]c3)n3ccnc23)n1 [Example 7, N-(5-(1H-pyrazol-4-yl)imidazo[1,2-a]pyrazin-8-yl)thiazol-2-amine]
0.101 to 0.5 µM	Cc1nc(Nc2ncc(-c3ccc4c(c3)CNC4=O)n3ccnc23)sc1C(=O)N(C)C [Example 10, N,N,4-trimethyl-2-(5-(1-oxoisoindolin-5-yl)imidazo[1,2-a]pyrazin-8-ylamino)thiazole-5-carboxamide]
0.501 to 1 µM	Cc1cnc(Nc2ncc(-c3ccc4c(c3)CNC4=O)n3ccnc23)s1 [Example 11, 5-(8-(5-methylthiazol-2-ylamino)imidazo[1,2-a]pyrazin-5-yl)isoindolin-1-one]
> 1 µM	c1cn2c(-c3cn[nH]c3)cnc(Nc3ncc(CN4CCOCC4)s3)c2n1 [Example 15, N-(5-(1H-pyrazol-4-yl)imidazo[1,2-a]pyrazin-8-yl)-5-(morpholinomethyl)thiazol-2-amine]
0.501 to 1 µM	CN1CCN(c2nnc(Nc3ncc(-c4ccc5c(c4)CNC5=O)n4ccnc34)s2)CC1 [Example 20, 5-(8-(5-(4-methylpiperazin-1-yl)-1,3,4-thiadiazol-2-ylamino)imidazo[1,2-a]pyrazin-5-yl)isoindolin-1-one]
> 1 µM	CC(C)N1CCN(C(=O)c2cnc(Nc3ncc(-c4cn[nH]c4)n4ccnc34)s2)CC1 [Example 23]
